Data from patent publication US4226875A, “Novel spiro-oxazolidinediones” (Pfizer Inc., priority 1979, dated 1980).

What was measured:
[1] = system: sorbitol accumulation in the sciatic nerve of streptozotocinized (i.e., diabetic) rats; experiment: sorbitol accumulation in the sciatic nerve of streptozotocinized (diabetic) rats; format: in vivo; conditions: oral; 50 mg/kg body weight; preliminary tests
Description: (§1) The activity of the compounds of the present invention as agents for the control of chronic diabetic complications may be determined by a number of standard biological or pharmacological tests. Suitable tests include (1) measuring their ability to inhibit the enzyme activity of isolated aldose reductase; (2) measuring their ability to reduce or inhibit sorbitol accumulation in the sciatic nerve of acutely streptozotocinized (i.e. diabetic) rats; (3) measuring their ability to reverse already elevated sorbitol levels in the sciatic nerve and lens of chronic streptozotocin-induced diabetic rats; (4) measuring their ability to prevent or inhibit galactitol formation in the lens of acutely galactosemic rats; and (5) measuring their ability to delay cataract formation and reduce the severity of lens opacities in chronic galactosemic rats. Suitable experimental procedures are described in U.S. Pat. No. 3,821,383 and the references cited therein.
(§2) The substrate employed was partially purified aldose reductase enzyme obtained from calf lens. […] Thus, for example, the compounds may be tested for their ability to reduce or inhibit sorbitol accumulation in the sciatic nerve of streptozotocinized (i.e., diabetic) rats by the procedure essentially described in U.S. Pat. No. 3,821,383. The amount of sorbitol accumulation in the sciatic nerves is measured 27 hours after induction of diabetes. […]

[2] = system: partially purified aldose reductase enzyme obtained from calf lens; experiment: inhibition of aldose reductase enzyme activity (procedure of US 3,821,383 / Hayman et al.); format: biochemical; conditions: compound concentration 10^-4 M
Description: as §1, §2

Compound | activity in reducing or inhibiting sorbitol accumulation in the sciatic nerve [1] | percent inhibition of enzyme activity [2] [%]
O=C1NC(=O)C2(CCCc3ccccc32)O1 (stereo not drawn) [1',2',3',4'-tetrahydro-spiro-[oxazolididine(5,1')naphthalene]-2,4-dione] | no significant activity | 75
O=C1NC(=O)C2(CCc3ccccc32)O1 (stereo not drawn) [Spiro-[indane(1,5')oxazolidine]-2',4'-dione] | – | 81
